Numbered stars: 1 amine (or outer) side, 2 acyl side, 3 side chain; on linkers, the order of the positions; unused ones are H or OH. Bridge positions count the residues as written; N and C are the ends. Square brackets hold non-standard residues; d marks the D form. Peptide text beside a SMILES is read from it. * marks the point of attachment. C20 diacid = O=C(O)CCCCCCCCCCCCCCCCCCC(=O)*; γGlu = O=C(O)[C@H](CCC(=O)[*:2])N[*:1]; Hyp = O=C(O)[C@@H]1C[C@@H](O)CN1; Cit = NC(=O)NCCC[C@H](N)C(=O)O
Tests used:
hAMY3 receptor = biological target: T1, hAMY3 receptor (Homo sapiens, UniProt O60896+P30988); experiment: cAMP assay for in vitro receptor activation, hAMY3-R; type: cell-based; conditions: cAMP assay, hAMY3 receptor; read-out: hAMY3R EC50
T1 sequence (P30988 25-474): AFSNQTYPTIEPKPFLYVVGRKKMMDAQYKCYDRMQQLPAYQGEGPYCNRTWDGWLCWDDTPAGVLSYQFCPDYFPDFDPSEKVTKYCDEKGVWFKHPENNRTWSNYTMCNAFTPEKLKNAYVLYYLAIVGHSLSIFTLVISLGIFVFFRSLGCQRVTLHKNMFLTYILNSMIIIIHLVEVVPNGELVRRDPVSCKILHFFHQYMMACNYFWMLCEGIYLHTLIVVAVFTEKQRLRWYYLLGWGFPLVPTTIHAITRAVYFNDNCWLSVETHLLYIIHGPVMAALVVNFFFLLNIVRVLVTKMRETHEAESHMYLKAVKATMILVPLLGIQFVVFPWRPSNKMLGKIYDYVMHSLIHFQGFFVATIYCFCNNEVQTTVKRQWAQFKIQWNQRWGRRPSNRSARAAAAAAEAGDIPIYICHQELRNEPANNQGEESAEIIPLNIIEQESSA
T1 sequence (O60896 24-148 partner): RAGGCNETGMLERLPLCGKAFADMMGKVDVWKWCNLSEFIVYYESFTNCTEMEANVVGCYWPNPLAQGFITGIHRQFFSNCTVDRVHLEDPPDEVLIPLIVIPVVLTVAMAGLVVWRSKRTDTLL
Summary of the method: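 Thawed cells from a sub-cloned monoclonal hAMY3-overexpressing line are plated in DPBS containing 0.05% casein and 0.5 mM IBMX. Test compounds are added immediately at graded doses for 30 min at room temperature. Reagents for cAMP detection are then added, and TR-FRET is recorded after one hour.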

hAM1 receptor = hAM1 receptor (Homo sapiens, UniProt O60895+Q16602); experiment: cAMP assay for in vitro receptor activation, hAM1-R; type: cell-based; conditions: cAMP assay, hAM1 receptor; read-out: hAM1R EC50
Summary of the method: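 Receptor activation, read as cAMP, was assessed in thawed cells of a monoclonal hAM1-overexpressing stable line, plated at 8000 cells/well in DPBS supplemented with 0.05% casein and 0.5 mM IBMX.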

Chain of hAM1 receptor (Q16602 23-461): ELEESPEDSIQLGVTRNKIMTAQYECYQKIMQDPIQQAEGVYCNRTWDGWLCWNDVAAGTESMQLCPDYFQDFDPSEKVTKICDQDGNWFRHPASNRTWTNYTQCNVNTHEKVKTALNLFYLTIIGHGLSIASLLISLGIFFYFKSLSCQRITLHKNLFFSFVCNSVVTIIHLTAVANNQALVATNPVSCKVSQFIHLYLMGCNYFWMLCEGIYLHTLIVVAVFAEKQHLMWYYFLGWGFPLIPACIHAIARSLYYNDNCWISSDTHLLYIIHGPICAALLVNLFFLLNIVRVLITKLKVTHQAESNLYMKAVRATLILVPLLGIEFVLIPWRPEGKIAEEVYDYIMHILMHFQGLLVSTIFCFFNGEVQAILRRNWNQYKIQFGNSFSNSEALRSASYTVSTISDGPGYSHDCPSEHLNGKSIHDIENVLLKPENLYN
Chain of hAM1 receptor (O60895 43-175 partner): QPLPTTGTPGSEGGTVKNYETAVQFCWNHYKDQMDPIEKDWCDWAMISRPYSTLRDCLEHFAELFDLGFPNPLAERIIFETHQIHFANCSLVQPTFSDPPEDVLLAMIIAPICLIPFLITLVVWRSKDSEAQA

Compound	EC50 (hAMY3 receptor)	EC50 (hAM1 receptor)
CC[C@H](C)[C@H](NC(=O)[C@H](C)NC(=O)CNC(=O)[C@H](Cc1ccccc1)NC(=O)[C@H](CC(N)=O)NC(=O)[C@H](CC(N)=O)NC(=O)[C@H](CO)NC(=O)[C@H](CO)NC(=O)[C@H](Cc1c[nH]cn1)NC(=O)[C@@H](NC(=O)[C@H](CC(C)C)NC(=O)[C@H](Cc1ccccc1)NC(=O)[C@H](CC(N)=O)NC(=O)[C@H](C)NC(=O)[C@H](CC(C)C)NC(=O)[C@H](CCCNC(=N)N)NC(=O)[C@H](CCC(N)=O)NC(=O)[C@@H](NC(=O)[C@H](C)NC(=O)[C@@H]1CSSC[C@H](NC(=O)[C@@H](N)CCCCN)C(=O)N[C@@H](CC(N)=O)C(=O)N[C@@H]([C@@H](C)O)C(=O)N[C@@H](C)C(=O)N[C@@H]([C@@H](C)O)C(=O)N1)[C@@H](C)O)C(C)C)C(=O)N[C@@H](CC(C)C)C(=O)N1CCC[C@H]1C(=O)N[C@@H](CO)C(=O)N[C@H](C(=O)N[C@@H](CCCCN)C(=O)N[C@H](C(=O)NCC(=O)N1CCC[C@H]1C(=O)N[C@@H](CC(N)=O)C(=O)NCC(=O)N[C@@H](Cc1ccc(O)cc1)C(N)=O)C(C)C)[C@@H](C)O [compound 149] (H-KCNTATCATQRLANFLVHSSNNFGAILPSTKVGPNGY-NH2; disulfide 2-7; N-terminus assumed)	0.04 nM	> 5000 nM
CC[C@H](C)[C@H](NC(=O)[C@H](CCC(N)=O)NC(=O)[C@H](CCC(=O)O)NC(=O)[C@H](C)NC(=O)[C@H](CC(C)C)NC(=O)[C@H](CCCNC(N)=O)NC(=O)[C@H](CCC(N)=O)NC(=O)[C@@H](NC(=O)[C@@H](NC(=O)[C@@H]1CSSC[C@H](NC(=O)[C@H](CCCCN)NC(=O)CC[C@H](NC(=O)CCCCCCCCCCCCCCCCCCC(=O)O)C(=O)O)C(=O)N[C@@H](CC(N)=O)C(=O)N[C@@H]([C@@H](C)O)C(=O)N[C@@H](C)C(=O)N[C@@H]([C@@H](C)O)C(=O)N1)[C@@H](C)O)C(C)C)C(=O)N[C@@H](C)C(=O)N[C@@H](CCC(N)=O)C(=O)N[C@@H](Cc1ccccc1)C(=O)N[C@H](C(=O)N[C@@H](CC(=O)O)C(=O)N[C@@H](CCCCN)C(=O)N[C@@H](CC(=O)O)C(=O)N[C@@H](CCCCN)C(=O)N[C@@H](CC(=O)O)C(=O)N[C@@H](CC(N)=O)C(=O)N[C@H](C(=O)N[C@@H](C)C(=O)N1CCC[C@H]1C(=O)N1CCC[C@H]1C(=O)N[C@H](C(=O)N[C@@H](CC(N)=O)C(=O)N[C@H](C(=O)NCC(=O)N[C@@H](CO)C(=O)N[C@@H](CC(N)=O)C(=O)NCC(=O)N1C[C@H](O)C[C@H]1C(N)=O)C(C)C)[C@@H](C)O)C(C)C)[C@@H](C)O [compound 153] ({C20 diacid-γGlu}-KCNTATCTVQ[Cit]LAEQIAQFTDKDKDNVAPPTNVGSNG[Hyp]-NH2; disulfide 2-7)	0.041 nM	> 5000 nM
CC[C@H](C)[C@H](NC(=O)[C@H](CCC(N)=O)NC(=O)[C@H](Cc1c[nH]cn1)NC(=O)[C@H](C)NC(=O)[C@H](CC(C)C)NC(=O)[C@H](CCCNC(=N)N)NC(=O)[C@H](CCC(N)=O)NC(=O)[C@@H](NC(=O)[C@@H](NC(=O)[C@@H]1CSSC[C@H](NC(=O)CN)C(=O)N[C@@H](CCCNC(=N)N)C(=O)N[C@@H](Cc2ccccc2)C(=O)NCC(=O)N[C@@H]([C@@H](C)O)C(=O)N1)[C@@H](C)O)C(C)C)C(=O)N[C@@H](Cc1ccc(O)cc1)C(=O)N[C@@H](CCC(N)=O)C(=O)N[C@@H](Cc1ccccc1)C(=O)N[C@H](C(=O)N[C@@H](CC(=O)O)C(=O)N[C@@H](CCCCN)C(=O)N[C@@H](CC(=O)O)C(=O)N[C@@H](CCCCN)C(=O)N[C@@H](CC(=O)O)C(=O)N[C@@H](CC(N)=O)C(=O)N[C@H](C(=O)N[C@@H](C)C(=O)N1CCC[C@H]1C(=O)N[C@@H](CCCNC(=N)N)C(=O)N[C@H](C(=O)N[C@@H](CCCCN)C(=O)N[C@H](C(=O)N[C@@H](CO)C(=O)N1CCC[C@H]1C(=O)N[C@@H](CCC(N)=O)C(=O)NCC(=O)N[C@@H](Cc1ccc(O)cc1)C(N)=O)C(C)C)[C@@H](C)O)C(C)C)[C@@H](C)O [compound 155] (H-GCRFGTCTVQRLAHQIYQFTDKDKDNVAPRTKVSPQGY-NH2; disulfide 2-7; N-terminus assumed)	0.045 nM	116 nM
CC[C@H](C)[C@H](NC(=O)[C@H](CCC(N)=O)NC(=O)[C@H](Cc1c[nH]cn1)NC(=O)[C@H](C)NC(=O)[C@H](CC(C)C)NC(=O)[C@H](CCCNC(=N)N)NC(=O)[C@@H](NC(=O)[C@@H](NC(=O)[C@@H](NC(=O)[C@@H]1CSSC[C@H](NC(=O)[C@H](CCCCN)NC(=O)CC[C@H](NC(=O)CCCCCCCCCCCCCCCCCCC(=O)O)C(=O)O)C(=O)N[C@@H](CC(N)=O)C(=O)N[C@@H]([C@@H](C)O)C(=O)N[C@@H](C)C(=O)N[C@@H]([C@@H](C)O)C(=O)N1)[C@@H](C)O)C(C)C)[C@@H](C)CC)C(=O)N[C@@H](Cc1ccc(O)cc1)C(=O)N[C@@H](CCC(N)=O)C(=O)N[C@@H](Cc1ccccc1)C(=O)N[C@H](C(=O)N[C@@H](CC(=O)O)C(=O)N[C@@H](CCCCN)C(=O)N[C@@H](CC(=O)O)C(=O)N[C@@H](CCCCN)C(=O)N[C@@H](CC(=O)O)C(=O)N[C@@H](CC(N)=O)C(=O)N[C@H](C(=O)N[C@@H](C)C(=O)N1CCC[C@H]1C(=O)N1CCC[C@H]1C(=O)N[C@H](C(=O)N[C@@H](CC(N)=O)C(=O)N[C@H](C(=O)NCC(=O)N[C@@H](CO)C(=O)N[C@@H](CC(N)=O)C(=O)NCC(=O)N1C[C@H](O)C[C@H]1C(N)=O)C(C)C)[C@@H](C)O)C(C)C)[C@@H](C)O [compound 159] ({C20 diacid-γGlu}-KCNTATCTVIRLAHQIYQFTDKDKDNVAPPTNVGSNG[Hyp]-NH2; disulfide 2-7)	0.048 nM	> 5000 nM
CC[C@H](C)[C@H](NC(=O)[C@H](C)NC(=O)CNC(=O)[C@H](Cc1ccccc1)NC(=O)[C@H](CC(N)=O)NC(=O)[C@H](CC(N)=O)NC(=O)[C@H](CO)NC(=O)[C@H](CO)NC(=O)[C@H](Cc1c[nH]cn1)NC(=O)[C@@H](NC(=O)[C@H](CC(C)C)NC(=O)[C@H](Cc1ccccc1)NC(=O)[C@H](CC(N)=O)NC(=O)[C@H](C)NC(=O)[C@H](CC(C)C)NC(=O)[C@H](CCCNC(=N)N)NC(=O)[C@H](CCC(N)=O)NC(=O)[C@@H](NC(=O)[C@H](C)NC(=O)[C@@H]1CSSC[C@H](NC(=O)[C@@H](N)CCCCN)C(=O)N[C@@H](CC(N)=O)C(=O)N[C@@H]([C@@H](C)O)C(=O)N[C@@H](C)C(=O)N[C@@H]([C@@H](C)O)C(=O)N1)[C@@H](C)O)C(C)C)C(=O)N[C@@H](CC(C)C)C(=O)N1CCC[C@H]1C(=O)N[C@@H](CO)C(=O)N[C@H](C(=O)N[C@@H](CCCCN)C(=O)N[C@H](C(=O)NCC(=O)N1CCC[C@H]1C(=O)N[C@@H](CC(N)=O)C(=O)NCC(=O)N[C@@H](Cc1ccc(O)cc1)C(N)=O)[C@@H](C)CC)[C@@H](C)O [compound 162] (H-KCNTATCATQRLANFLVHSSNNFGAILPSTKIGPNGY-NH2; disulfide 2-7; N-terminus assumed)	0.051 nM	> 5000 nM
CC[C@H](C)[C@H](NC(=O)[C@H](C)NC(=O)CNC(=O)[C@H](Cc1ccccc1)NC(=O)[C@H](CC(N)=O)NC(=O)[C@H](CC(N)=O)NC(=O)[C@H](CO)NC(=O)[C@H](CO)NC(=O)[C@H](Cc1c[nH]cn1)NC(=O)[C@@H](NC(=O)[C@H](CC(C)C)NC(=O)[C@H](Cc1ccccc1)NC(=O)[C@H](CC(N)=O)NC(=O)[C@H](C)NC(=O)[C@H](CC(C)C)NC(=O)[C@H](CCCNC(=N)N)NC(=O)[C@H](CCC(N)=O)NC(=O)[C@@H](NC(=O)[C@H](C)NC(=O)[C@@H]1CSSC[C@H](NC(=O)[C@@H](N)CCCCN)C(=O)N[C@@H](CC(N)=O)C(=O)N[C@@H]([C@@H](C)O)C(=O)N[C@@H](C)C(=O)N[C@@H]([C@@H](C)O)C(=O)N1)[C@@H](C)O)C(C)C)C(=O)N[C@@H](CC(C)C)C(=O)N1CCC[C@H]1C(=O)N[C@@H](CO)C(=O)N[C@H](C(=O)N[C@@H](CCCCN)C(=O)N[C@H](C(=O)NCC(=O)N[C@@H](CO)C(=O)N[C@@H](CC(N)=O)C(=O)N[C@H](C(=O)N[C@@H](Cc1ccc(O)cc1)C(N)=O)[C@@H](C)O)[C@@H](C)CC)[C@@H](C)O [compound 180] (H-KCNTATCATQRLANFLVHSSNNFGAILPSTKIGSNTY-NH2; disulfide 2-7; N-terminus assumed)	0.082 nM	> 5000 nM
